# Values joined by “and” are separate entries in the source; they are usually repeats but may differ in a detail not shown here. Equal values may be shown once.
# Molecular target: T1, mP2X7R (Mus musculus, UniProt Q9Z1M0)
# T1 construct: expressed in transfected cells
# T1 sequence (Q9Z1M0 1-595): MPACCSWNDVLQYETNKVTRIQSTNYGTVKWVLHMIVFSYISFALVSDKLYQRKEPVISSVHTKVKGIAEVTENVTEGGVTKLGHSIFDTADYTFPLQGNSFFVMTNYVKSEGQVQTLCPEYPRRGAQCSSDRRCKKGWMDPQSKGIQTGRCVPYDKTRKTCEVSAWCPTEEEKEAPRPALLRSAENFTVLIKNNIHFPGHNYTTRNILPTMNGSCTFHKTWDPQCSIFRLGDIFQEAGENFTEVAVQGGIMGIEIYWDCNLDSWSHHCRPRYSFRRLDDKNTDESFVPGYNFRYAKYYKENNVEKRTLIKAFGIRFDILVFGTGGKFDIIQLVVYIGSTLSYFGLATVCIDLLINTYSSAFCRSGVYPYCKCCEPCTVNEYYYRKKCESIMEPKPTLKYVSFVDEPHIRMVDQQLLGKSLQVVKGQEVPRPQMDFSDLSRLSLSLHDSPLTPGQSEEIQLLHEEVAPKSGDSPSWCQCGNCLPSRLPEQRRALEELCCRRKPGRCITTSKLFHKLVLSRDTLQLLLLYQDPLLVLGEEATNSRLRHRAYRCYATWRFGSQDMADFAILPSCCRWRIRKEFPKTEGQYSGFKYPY
# Assay: Calcium influx assay, 1321N1 astrocytoma cells, BzATP EC80
# Type: cell-based
# Details: for IC50: 1321N1 cells, BzATP EC80, mean ± SD
# Excerpt: . For 1321N1 astrocytoma cells stably expressing the human, rat, or mouse P2X7Rs, or hP2X2Rs or hP2X4Rs, the fluorescent Ca^2+-chelating dye Fluo-4 acetoxymethyl ester (Fluo-4 AM, Thermo Fisher Scientific, Dreieich, Germany) was used. For 1321N1 astrocytoma cell lines recombinantly expressing the hP2X1Rs or hP2X3Rs, the FLIPR® Calcium 5 Assay Kit (Molecular Devices, San José, CA, USA) was employed. Human, rat, and mouse P2X7Rs as well as hP2X1Rs, hP2X2Rs, hP2X3Rs, and hP2X4Rs were recombinantly expressed in 1321N1 astrocytoma cells using a retroviral expression system[72]–[74].
# On the first day, 45,000 cells per well (30,000 cells for the human P2X3 receptor-expressing cells) were seeded into a 96-well polystyrene microplate with a black, flat bottom in a final volume of 200 µL. After overnight incubation at 37 °C and 10% CO2 (5% CO2 for the human P2X3R-expressing cell line), the medium was removed by inverting the plate, and the cells were loaded with dye solution. Hanks’ balanced salt solution (HBSS, Thermo Fisher Scientific, Dreieich, Germany) was used as the assay buffer for human P2X1R, P2X2R, P2X3R, and P2X4R. For the P2X7Rs, a different assay buffer was used: 150 mM sodium-glutamate, 5 mM KCl, 0.5 mM CaCl2, 0.1 mM MgCl2, 10 mM D-glucose, 25 mM 4-(2-hydroxyethyl)-1-piperazineethanesulfonic acid (HEPES), pH 7.4. The dye solutions were freshly prepared. The Fluo-4 AM solution contained 3 µM of Fluo-4 AM in assay buffer and 1% of the non-ionic detergent Pluronic F-127® (Sigma-Aldrich, Taufkirchen, Germany). The Calcium 5 dye, used for hP2X1Rs and hP2X3Rs, was prepared in HBSS buffer. Cells were loaded with Fluo-4 AM and incubated for 1 h at room temperature with gentle shaking (100 rpm), while those loaded with the Calcium 5 dye were incubated for 1 h at 37 °C. After incubation, the dye solution was carefully removed from the plate, and buffer was added to the cells for the evaluation of agonists. […] The agonist solution was prepared in a 96-well transparent plate, obtaining the respective EC80 values. As a control, assay buffer without the test compound was used. After 30 min of incubation with antagonist, the plates were measured using a fluorescence imaging plate reader NOVOstar (BMG Labtech GmbH, Offenburg, Germany) at an excitation wavelength of 485 nm and an emission wavelength of 520 nm, for 30 s at 0.4 s intervals. Calcium influx measurements were then initiated by automatic addition of 20 µL of agonist solution by the plate reader’s pipetting device. Data were analyzed using Microsoft Excel and GraphPad Prism (Version 8.0, San Diego, CA, USA). EC80 and IC50 values were calculated using nonlinear regression with a sigmoidal dose-response equation.
Structure (SMILES),"activity at 0.003 µM (1321-N1, Log(c) M -8.52288, read-out: normalized calcium signal, mP2X7R IC50 curve)",IC50,"normalized calcium signal, mP2X7R IC50 curve (Log(c) M -7, 0.1 µM)","normalized calcium signal, mP2X7R IC50 curve (Log(c) M -7.52288, 0.03 µM)","normalized calcium signal, mP2X7R IC50 curve (Log(c) M -8, 0.01 µM)","normalized calcium signal, mP2X7R IC50 curve (Log(c) M -8.52288, 0.003 µM)","normalized calcium signal, mP2X7R IC50 curve (Log(c) M -9, 0.001 µM)","normalized calcium signal, mP2X7R IC50 curve (Log(c) M -9.52288, 0.0003 µM)",times more potent than UB-ALT-P30 on the mP2X7R (calcium influx)
"O=C(NNc1ccccc1Cl)C12CC3CC(CC(C3)C1)C2 [UB-ALT-P30, reference compound]",101%,148 ± 27 nM,58.6062 and 69.2329 and 80.2999 and 70.4572 and 91.3507 and 85.9323 and 94.1322,92.3415 and 79.1265 and 114.599 and 132.12 and 97.8989 and 119.546,92.8335 and 100.155 and 89.6254 and 122.632 and 113.342 and 120.308,96.3012 and 101.363,,,
CC12CC3CC1(C)C1(C)CC3(C(=O)NNc3ccccc3Cl)CC21C [UB-MBX-46],,4.52 ± 0.72 nM,,,,72.2751 and 83.0134 and 65.4518 and 88.1956 and 92.7904 and 87.7744 and 76.3105 and 64.8252,110.597 and 115.455 and 88.4 and 102.046 and 107.58 and 103.403 and 110.382,115.86 and 127.811 and 92.8545 and 89.4511 and 104.887 and 106.902 and 87.8281 and 105.571,~ 33 x

# Reference: paper PMC12436592 (Nature Communications, 2025)
